The record followed here is patent US20180177749A1, “USE OF CYP EXPRESSION TO DIRECT THERAPEUTIC INTERVENTION IN CANCER” (REGENTS OF THE UNIVERSITY OF MINNESOTA, priority 2016, published 2018).

SMILES strings stand for the structures.

One test has as its system MCF-7 cells. The experiment in a line: Western blot of signaling proteins, MCF-7. It is filed as cell-based, human. The procedure:
RIPA extracts of cells were prepared as described previously, in the presence of protease inhibitors and phosphatase inhibitors. Protein concentrations were determined by the micro-bicinchoninic acid (BCA) method, and 30 μg of protein was used for each lane of the SDS-polyacrylamide gel Western blot. Relative protein expression was estimated using GAPDH or β-actin as an internal standard.
(In general: Immunoblotting shows a protein as a band on a membrane.)

The subject of the next test is MDA-MB-435/LCC6. The experiment in a line: Measurement of OCR and ECAR, MDA-MB-435/LCC6. It is filed as cell-based. Particulars: 20 and 40 μM. As for the experimental part: Cells were maintained in growth medium consisting of 10% FBS at 37° C. with 5% CO2 and seeded at 100,000 cells per well in XF24-well cell culture microplates (Seahorse Bioscience, North Billirica, Mass.). Concentrated stocks of HBB were prepared in DMSO. HBB was diluted to 10× working concentration in XF assay medium (a non-buffered medium including 2 mM L-glutamine but no sodium bicarbonate (buffering agent), glucose, or sodium pyruvate). Assays were performed in the XF Extracellular Flux Analyzer (Seahorse Bioscience that measures uptake and excretion of metabolic end products in real time). Oxygen consumption rate (OCR) and extracellular acidification rate (ECAR) were measured using an XF Assay Kit. OCR is reported in pmoles/minute and ECAR in mpH/minute. Before analysis, the cells were switched from culture medium to XF assay medium. After baseline measurements, 75 μl of HBB prepared in assay medium was injected into each well to reach final working concentrations. After addition of HBB, OCR and ECAR were measured at 18-minute intervals. There were 5 replicates was performed for each data point for MCF-7, MDA-MB-231, T47D and MDA-MB-435 cell lines. There were 6 replicates for the studies of the 3-18 and 4-14 cell lines.

As to `CCCCCCNC(=N)NC(=N)NCc1ccccc1` [HBB, N1-hexyl-N5-benzyl-biguanide], the “dosing for signaling effects relative to metformin (lower)” value with MCF-7 cells is 250 fold. The “mTOR, S6 kinase and ERK” value with MCF-7 cells (20 μM, by 24 hours, presence or absence of serum) was “Significant inhibition”. The “onset of AMPK activation (phosphorylation)” value in the test with MCF-7 cells (HBB 20 μM, metformin 5 mM) is reported as “within 30 minutes to 1 hour”. Also, in the test with MDA-MB-435/LCC6, the “reduction of OCR and ECAR” value is listed as “significant vs. vehicle”.
